Data on 19 compounds can be found in patent US9422267B2, “Fused pyrimidine compounds and use thereof” (Medivation Technologies, Inc., priority 2012, dated 2016).

Like-named read-outs stand apart in the source and are kept apart here.

The test system of assay [1] is Akt phosphorylation induced by IGF-1R in HT-29 cells. Kind of assay: Western blot analysis of Akt phosphorylation induced by IGF-1R. It is filed as cell-based, Human. The settings on record: for phosphorylated AKT levels normalized to actin levels (pAKT/actin): then IGF-1 10 ng/mL 10 min, HT-29. The procedure:
Inhibition of Akt phosphorylation induced by IGF-1R was studied by western blot analysis. Human colon carcinoma HT-29 cells were seeded at a density of 8×10^4 cells/well in a 24-well plate and grown in DME/F12 media containing 10% FBS for 24 h. The cells were then depleted of serum by incubation in DME/F12 media lacking FBS for 24 h. […] […] Lysed cells were centrifuged at 13,000 rpm for 15 min and the protein concentration soluble fraction (supernatant) of each sample was determined using a BCA protein assay (Pierce).

Another assay has as its target IGF1R (Homo sapiens, UniProt P08069). Nature of the assay: In vitro IGF-1R enzymatic assay (ADP-Glo kinase assay). Also on record: purchased Millipore 14-802. It is filed as biochemical. The settings on record: activated IGF-1R, 30 nM. Here is the method: IC50 values of the compounds of the invention against IGF-1R and IR were measured in vitro using an ADP-Glo kinase assay Kit (Promega). […] Kinase reactions in both assays were conducted at 30° C. for 20 min with increasing concentrations of compounds of the invention.

The mark [2] stands for this setting: average, read-out: % Inh @ 30 nM Avg.
Setting [3] is: replicate N1, read-out: % Inh @ 30 nM (N1).
The mark [4] stands for this setting: replicate N2, read-out: % Inh @ 30 nM (N2).

Chain of IGF1R (P08069 31-1367): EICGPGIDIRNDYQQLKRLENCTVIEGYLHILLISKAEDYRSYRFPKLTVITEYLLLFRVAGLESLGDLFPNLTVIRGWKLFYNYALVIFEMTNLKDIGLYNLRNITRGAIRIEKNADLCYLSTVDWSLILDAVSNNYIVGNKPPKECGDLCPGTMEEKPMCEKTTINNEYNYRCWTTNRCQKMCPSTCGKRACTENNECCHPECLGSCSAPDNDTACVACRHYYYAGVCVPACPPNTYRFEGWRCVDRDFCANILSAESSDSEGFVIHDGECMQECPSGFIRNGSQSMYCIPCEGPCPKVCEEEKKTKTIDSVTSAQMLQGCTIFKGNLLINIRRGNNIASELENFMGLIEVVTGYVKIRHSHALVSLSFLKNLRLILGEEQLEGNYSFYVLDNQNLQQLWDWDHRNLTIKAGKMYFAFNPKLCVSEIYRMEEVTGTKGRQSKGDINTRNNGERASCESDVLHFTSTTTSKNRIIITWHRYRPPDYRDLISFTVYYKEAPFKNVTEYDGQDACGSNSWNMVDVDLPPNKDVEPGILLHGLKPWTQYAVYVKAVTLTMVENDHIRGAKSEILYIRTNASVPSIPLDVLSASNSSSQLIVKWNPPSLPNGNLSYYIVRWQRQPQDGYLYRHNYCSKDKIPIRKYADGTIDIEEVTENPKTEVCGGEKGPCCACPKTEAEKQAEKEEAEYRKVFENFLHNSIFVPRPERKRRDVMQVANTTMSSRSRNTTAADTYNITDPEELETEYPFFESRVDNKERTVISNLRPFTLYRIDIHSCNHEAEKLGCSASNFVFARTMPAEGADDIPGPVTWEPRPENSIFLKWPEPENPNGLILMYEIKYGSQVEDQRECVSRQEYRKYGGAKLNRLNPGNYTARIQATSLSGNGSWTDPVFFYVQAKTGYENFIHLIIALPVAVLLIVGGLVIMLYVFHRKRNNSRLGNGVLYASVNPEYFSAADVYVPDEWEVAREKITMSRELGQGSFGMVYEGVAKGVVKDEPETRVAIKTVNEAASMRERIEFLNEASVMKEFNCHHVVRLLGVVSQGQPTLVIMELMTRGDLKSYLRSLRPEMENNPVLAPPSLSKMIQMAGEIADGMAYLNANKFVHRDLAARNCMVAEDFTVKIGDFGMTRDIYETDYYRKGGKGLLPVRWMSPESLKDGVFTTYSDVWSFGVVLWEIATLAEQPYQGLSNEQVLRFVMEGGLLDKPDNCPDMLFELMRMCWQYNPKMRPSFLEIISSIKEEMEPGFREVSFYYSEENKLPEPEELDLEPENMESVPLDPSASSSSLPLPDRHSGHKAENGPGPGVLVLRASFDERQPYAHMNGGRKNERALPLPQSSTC

As for `CC(C)c1cc(Nc2nc(N3CCCCC3C(=O)Nc3ccc(F)nc3)nc3c2CCC3)n[nH]1` (single isomer, unassigned) [Compound 16b, N-(6-fluoropyridin-3-yl)-1-(4-(5-isopropyl-1H-pyrazol-3-ylamino)-6,7-dihydro-5H-cyclopenta[d]pyrimidin-2-yl)piperidine-2-carboxamide], the “phosphorylated AKT levels normalized to actin levels (pAKT/actin)” value in assay [1] (0.1 nM compound 2 h) came to 0.53; in assay [1] (1 nM compound 2 h), 0.51; in assay [1] (10 nM compound 2 h), 0.15; in assay [1] (100 nM compound 2 h), 0.01.

`O=C(Nc1ccc(F)nc1)C1CCCN1c1nc2c(c(Nc3cc(C4CC4)[nH]n3)n1)CCC2` (racemic) [Compound 2, 1-(4-(5-cyclopropyl-1H-pyrazol-3-ylamino)-6,7-dihydro-5H-cyclopenta[d]pyrimidin-2-yl)-N-(6-fluoropyridin-3-yl)pyrrolidine-2-carboxamide]: the entries for the “phosphorylated AKT levels normalized to actin levels (pAKT/actin)” value in assay [1] (1 nM compound 2 h), in assay [1] (10 nM compound 2 h) and in assay [1] (100 nM compound 2 h) were 0.91, 0.07 and 0.00, respectively.

Take `O=C(Nc1cccnc1)C1CCCN1c1nc2c(c(Nc3cc(C4CC4)[nH]n3)n1)CCC2` (single isomer, unassigned) [Compound 3b, 1-(4-(5-cyclopropyl-1H-pyrazol-3-ylamino)-6,7-dihydro-5H-cyclopenta[d]pyrimidin-2-yl)-N-(pyridin-3-yl)pyrrolidine-2-carboxamide]: the “phosphorylated AKT levels normalized to actin levels (pAKT/actin)” value in assay [1] (1 nM compound 2 h) amounted to 1.70; in assay [1] (10 nM compound 2 h) it was 0.57; in assay [1] (100 nM compound 2 h) it was 0.02.

Regarding `O=C(Nc1cnccn1)C1CCCN1c1nc2c(c(Nc3cc(C4CC4)[nH]n3)n1)CCC2` (racemic) [Compound 6, 1-(4-(5-cyclopropyl-1H-pyrazol-3-ylamino)-6,7-dihydo-5H-cyclopenta[d]pyrimidin-2-yl)-N-(pyrazin-2-yl)pyrrolidine-2-carboxamide], the “phosphorylated AKT levels normalized to actin levels (pAKT/actin)” value in assay [1] (1 nM compound 2 h) is listed as 0.22; in assay [1] (10 nM compound 2 h), 0.01; in assay [1] (100 nM compound 2 h) it was 0.01. Moreover, the “Normalized phosphorylated AKT (relative to actin) levels relative to 0.1 nM compound treatment” value in assay [1] (100 nM) was found to be 0.0.

With `O=C(Nc1ccc(F)nc1)C1CCCN1c1nc2c(c(Nc3cc(C4CC4)[nH]n3)n1)CCC2` (single isomer, unassigned) [Compound 2a, 1-(4-(5-cyclopropyl-1H-pyrazol-3-ylamino)-6,7-dihydro-5H-cyclopenta[d]pyrimidin-2-yl)-N-(6-fluoropyridin-3-yl)pyrrolidine-2-carboxamide], in assay [1] (0.1 nM compound 2 h), the “phosphorylated AKT levels normalized to actin levels (pAKT/actin)” value turned out to be 1.70.

With `O=C(Nc1ccc(F)nc1)C1C(O)CCN1c1nc2c(c(Nc3cc(C4CC4)[nH]n3)n1)CCC2` (single isomer, unassigned) [Compound 11b, 1-(4-(5-cyclopropyl-1H-pyrazol-3-ylamino)-6,7-dihydro-5H-cyclopenta[d]pyrimidin-2-yl)-N-(6-fluoropyridin-3-yl)-3-hydroxypyrrolidine-2-carboxamide], the “phosphorylated AKT levels normalized to actin levels (pAKT/actin)” value in assay [1] (100 nM compound 2 h) was found to be 0.33.

Consider `O=C(Nc1ccc(F)nc1)C1CCCCN1c1nc2c(c(Nc3cc(C4CCCC4)[nH]n3)n1)CCC2` (single isomer, unassigned) [Compound 17b, 1-(4-(5-cyclopentyl-1H-pyrazol-3-ylamino)-6,7-dihydro-5H-cyclopenta[d]pyrimidin-2-yl)-N-(6-fluoropyridin-3-yl)piperidine-2-carboxamide], for which the figures for the “phosphorylated AKT levels normalized to actin levels (pAKT/actin)” value in assay [1] (0.1 nM compound 2 h), in assay [1] (1 nM compound 2 h) and in assay [1] (10 nM compound 2 h) were 0.83, 0.99 and 0.95, respectively.

Take `O=C(Nc1ccc(F)nc1)C1CCCN1c1nc2c(c(Nc3cc(C4CCCC4)[nH]n3)n1)CCC2` (single isomer, unassigned) [Compound 4b, 1-(4-(5-cyclopentyl-1H-pyrazol-3-ylamino)-6,7-dihydro-5H-cyclopenta[d]pyrimidin-2-yl)-N-(6-fluoropyridin-3-yl)pyrrolidine-2-carboxamide]: the “phosphorylated AKT levels normalized to actin levels (pAKT/actin)” value in assay [1] (100 nM compound 2 h) was determined as 0.20.

`O=C(Nc1cncnc1)C1CCCN1c1nc2c(c(Nc3cc(C4CC4)[nH]n3)n1)CCC2` (racemic) [Compound 7, 1-(4-(5-cyclopropyl-1H-pyrazol-3-ylamino)-6,7-dihydro-5H-cyclopenta[d]pyrimidin-2-yl)-N-(pyrimidin-5-yl)pyrrolidine-2-carboxamide]: the “phosphorylated AKT levels normalized to actin levels (pAKT/actin)” value in assay [1] (100 nM compound 2 h) is listed as 1.20.

As for `CC(C)c1cc(Nc2nc(N3CCCC3C(=O)Nc3ccc(F)nc3)nc3c2CCCC3)n[nH]1` (single isomer, unassigned) [Compound 13a, N-(6-fluoropyridin-3-yl)-1-(4-(5-isopropyl-1H-pyrazol-3-ylamino)-5,6,7,8-tetrahydroquinazolin-2-yl)pyrrolidine-2-carboxamide], the “phosphorylated AKT levels normalized to actin levels (pAKT/actin)” value in assay [1] (0.1 nM compound 2 h) worked out at 0.51; in assay [1] (1 nM compound 2 h), 0.54; in assay [1] (10 nM compound 2 h), 0.45; in assay [1] (100 nM compound 2 h), 0.80.

For the compound `O=C(Nc1ccc(F)nc1)C1CCCN1c1nc2c(c(Nc3cc(C4CCCC4)[nH]n3)n1)CCC2` (racemic) [Compound 4, 1-(4-(5-cyclopentyl-1H-pyrazol-3-ylamino)-6,7-dihydro-5H-cyclopenta[d]pyrimidin-2-yl)-N-(6-fluoropyridin-3-yl)pyrrolidine-2-carboxamide], the “phosphorylated AKT levels normalized to actin levels (pAKT/actin)” value in assay [1] (100 nM compound 2 h) was found to be 0.06.

Regarding `CC(C)c1cc(Nc2nc(N3CCCC3C(=O)Nc3ccc(F)nc3)nc3c2CCC3)on1` (single isomer, unassigned) [Compound 12a, N-(6-fluoropyridin-3-yl)-1-(4-(3-isopropylisoxazol-5-ylamino)-6,7-dihydro-5H-cyclopenta[d]pyrimidin-2-yl)pyrrolidine-2-carboxamide], the inhibition at 0.03 µM at IGF1R (setting [2]) was found to be 20%; at IGF1R (setting [3]) it was 19%; on IGF1R (setting [4]) it was 20%.

In the case of `O=C(Nc1cnccn1)C1CCCN1c1nc2c(c(Nc3cc(C4CC4)[nH]n3)n1)CCC2` (single isomer, unassigned) [Compound 6a], the “phosphorylated AKT levels normalized to actin levels (pAKT/actin)” value in assay [1] (10 nM compound 2 h) is on record as 1.40.

Take `O=C(Nc1ccc(F)nc1)C1C(O)CCN1c1nc2c(c(Nc3cc(C4CC4)[nH]n3)n1)CCC2` (single isomer, unassigned) [Compound 11a]: the inhibition at 0.03 µM at IGF1R (setting [2]) worked out at 13%; on IGF1R (setting [3]) it was 17%; on IGF1R (setting [4]) it was 10%.

Consider `CC(C)c1cc(Nc2nc(N3CCCC3C(=O)N(C)C)nc3c2CCC3)n[nH]1` (single isomer, unassigned) [Compound 20a, 1-(4-(5-isopropyl-1H-pyrazol-3-ylamino)-6,7-dihydro-5H-cyclopenta[d]pyrimidin-2-yl)-N,N-dimethylpyrrolidine-2-carboxamide], for which, at IGF1R (setting [2]), the inhibition at 0.03 µM is 11%.

With `O=C(Nc1ccc(F)nc1)C1CCCCN1c1nc2c(c(Nc3cc(C4CC4)[nH]n3)n1)CCC2` (racemic) [Compound 9, 1-(4-(5-cyclopropyl-1H-pyrazol-3-ylamino)-6,7-dihydro-5H-cyclopenta[d]pyrimidin-2-yl)-N-(6-fluoropyridin-3-yl)piperidine-2-carboxamide], the “phosphorylated AKT levels normalized to actin levels (pAKT/actin)” value is 0.67 in assay [1] (0.1 nM compound 2 h), 0.71 in assay [1] (1 nM compound 2 h), 0.07 in assay [1] (10 nM compound 2 h) and 0.00 in assay [1] (100 nM compound 2 h).

Take `O=C(Nc1ccc(F)nc1)C1CCCN1c1nc2c(c(Nc3cc(C4CC4)[nH]n3)n1)CCCC2` (single isomer, unassigned) [Compound 14a, 1-(4-(5-cyclopropyl-1H-pyrazol-3-ylamino)-5,6,7,8-tetrahydroquinazolin-2-yl)-N-(6-fluoropyridin-3-yl)pyrrolidine-2-carboxamide]: the “phosphorylated AKT levels normalized to actin levels (pAKT/actin)” value in assay [1] (0.1 nM compound 2 h) amounted to 0.73; in assay [1] (1 nM compound 2 h) it was 0.51; in assay [1] (10 nM compound 2 h), 0.43; in assay [1] (100 nM compound 2 h), 0.35.

Consider `O=C(Nc1ccc(F)nc1)C1CCCCN1c1nc2c(c(Nc3cc(C4CC4)[nH]n3)n1)CCC2` (single isomer, unassigned) [Compound 9a, 1-(4-(5-cyclopropyl-1H-pyrazol-3-ylamino)-6,7-dihydro-5H-cyclopenta[d]pyrimidin-2-yl)-N-(6-fluoropyridin-3-yl)piperidine-2-carboxamide], for which the “phosphorylated AKT levels normalized to actin levels (pAKT/actin)” value turned out to be 0.53 in assay [1] (10 nM compound 2 h) and 0.02 in assay [1] (100 nM compound 2 h).

As for `O=C(Nc1ccc(F)nc1)C1CCCN1c1nc2c(c(Nc3cc(C4CCCC4)[nH]n3)n1)CCCC2` (single isomer, unassigned) [Compound 15b, 1-(4-(5-cyclopentyl-1H-pyrazol-3-ylamino)-5,6,7,8-tetrahydroquinazolin-2-yl)-N-(6-fluoropyridin-3-yl)pyrrolidine-2-carboxamide], the “phosphorylated AKT levels normalized to actin levels (pAKT/actin)” value in assay [1] (0.1 nM compound 2 h) was 0.52; in assay [1] (1 nM compound 2 h), 0.58; in assay [1] (10 nM compound 2 h), 0.43; in assay [1] (100 nM compound 2 h), 0.13.
